Reference: US20240270762A1, “PENICILLIN-BINDING PROTEIN INHIBITORS” (priority 2021, published 2024)
≈ marks a conversion by molar mass, not a printed value.

Columns and labels:
A. baumannii ATCC 17978 = experiment: microbe, parasite or virus in culture; format: cell-based; settings: Acinetobacter baumannii, ATCC17978, read-out: MIC, A. baumannii ATCC 17978
P. aeruginosa CDC-0095 = experiment: microbe, parasite or virus in culture; format: cell-based; settings: Pseudomonas aeruginosa, CDC0095, read-out: Minimum inhibitory concentration, P. aeruginosa CDC-0095
A. baumannii 1258916 = experiment: microbe, parasite or virus in culture; format: cell-based, Acinetobacter baumannii; settings: Acinetobacter baumannii, 1258916, read-out: MIC, A. baumannii 1258916
P. aeruginosa ATCC 35151 = experiment: microbe, parasite or virus in culture; format: cell-based; settings: Pseudomonas aeruginosa, ATCC35151, read-out: Minimum inhibitory concentration, P. aeruginosa ATCC 35151
P. aeruginosa ATCC 27853 = experiment: microbe, parasite or virus in culture; format: cell-based; settings: Pseudomonas aeruginosa, ATCC27853, read-out: Minimum inhibitory concentration, P. aeruginosa ATCC 27853
[1] = tested on: B. humptydooensis ATCC BAA-2767; experiment: microbe, parasite or virus in culture; format: cell-based; settings: Burkholderia humptydooensis, ATCCBAA2767, read-out: Minimum inhibitory concentration (MIC), B. humptydooensis ATCC BAA-2767
A. baumannii CDC-0033 = experiment: microbe, parasite or virus in culture; format: cell-based; settings: Acinetobacter baumannii, CDC0033, read-out: MIC, A. baumannii CDC-0033
A. baumannii ATCC 19606 = experiment: microbe, parasite or virus in culture; format: cell-based; settings: Acinetobacter baumannii, ATCC19606, read-out: MIC, A. baumannii ATCC 19606
[2] = molecular target: T1, PBP3 from Acinetobacter baumannii (ATCC 19606) (Acinetobacter baumannii, UniProt A0ABX6CK25); experiment: Bocillin-FL fluorescence polarization competition binding, A. baumannii PBP3; settings: fluorescence polarization competition binding assay using Bocillin-FL; read-out: A. baumannii PBP3 Potency
T1 sequence (A0ABX6CK25 64-610): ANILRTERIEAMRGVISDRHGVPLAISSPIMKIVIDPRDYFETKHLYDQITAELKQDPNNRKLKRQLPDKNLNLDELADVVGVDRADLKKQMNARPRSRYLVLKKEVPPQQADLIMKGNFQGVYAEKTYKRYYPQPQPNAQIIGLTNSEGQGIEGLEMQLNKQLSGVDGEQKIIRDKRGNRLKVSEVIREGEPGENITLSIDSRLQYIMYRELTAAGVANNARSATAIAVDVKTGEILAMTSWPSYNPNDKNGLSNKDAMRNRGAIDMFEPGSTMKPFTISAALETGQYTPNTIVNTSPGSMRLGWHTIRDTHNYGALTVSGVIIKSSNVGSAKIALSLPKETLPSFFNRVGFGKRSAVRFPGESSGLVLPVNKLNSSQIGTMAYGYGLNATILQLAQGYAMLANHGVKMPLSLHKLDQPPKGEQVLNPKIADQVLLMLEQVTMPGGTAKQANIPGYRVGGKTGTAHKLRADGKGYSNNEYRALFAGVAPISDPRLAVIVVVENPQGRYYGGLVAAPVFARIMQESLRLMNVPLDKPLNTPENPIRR
Method in brief: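 Purified PBP was preincubated with inhibitor (E. coli PBP3 1.5 μM, 30 min; P. aeruginosa PBP3 0.75 μM, A. baumannii PBP3 0.2 μM and PBP1a 1 μM, 15 min), then Bocillin-FL (0.1 μM; 0.05 μM for PBP1a) added and FP read up to 60 min. EC50 = 50% loss of bound probe.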

P. aeruginosa CDC-0110 = experiment: microbe, parasite or virus in culture; format: cell-based; settings: Pseudomonas aeruginosa, CDC0110, read-out: Minimum inhibitory concentration, P. aeruginosa CDC-0110
P. aeruginosa CDC-0090 = experiment: microbe, parasite or virus in culture; format: cell-based; settings: Pseudomonas aeruginosa, CDC0090, read-out: Minimum inhibitory concentration, P. aeruginosa CDC-0090

SMILES	MIC (A. baumannii ATCC 17978) [µg/mL]	MIC (P. aeruginosa CDC-0095) [µg/mL]	MIC (A. baumannii 1258916) [µg/mL]	MIC (P. aeruginosa ATCC 35151) [µg/mL]	MIC (P. aeruginosa ATCC 27853) [µg/mL]	MIC [1] [µg/mL]	MIC (A. baumannii CDC-0033) [µg/mL]	MIC (A. baumannii ATCC 19606) [µg/mL]	IC50 [2] [µM]	MIC (P. aeruginosa CDC-0110) [µg/mL]	MIC (P. aeruginosa CDC-0090) [µg/mL]
O=C(O)c1c(F)ccc2c1OB(O)[C@@H](NC(=O)[C@H](NC(=O)N1CCN(C3CCN(C(=O)c4ccncc4)CC3)C1=O)c1cc(F)c(O)c(O)c1Cl)C2 [Example 461, (R)-3-((R)-2-(2-chloro-5-fluoro-3,4-dihydroxyphenyl)-2-(3-(1-isonicotinoylpiperidin-4-yl)-2-oxoimidazolidine-1-carboxamido)acetamido)-7-fluoro-2-hydroxy-3,4-dihydro-2H-benzo[e][1,2]oxaborinine-8-carboxylic acid]	< 1	< 1	< 1	< 1	< 1	< 1	< 1	< 1	< 10	< 1	< 1
O=C(O)c1c(F)ccc2c1OB(O)[C@@H](NC(=O)C(NC(=O)N1CCN(C3CCN(C(=O)Nc4cc(O)ccc4F)CC3)C(=O)C1=O)c1cc(F)c(O)c(O)c1Cl)C2 (stereo partly drawn) [Example 479, (3R)-3-(2-(2-chloro-5-fluoro-3,4-dihydroxyphenyl)-2-(4-(1-((2-fluoro-5-hydroxyphenyl)carbamoyl)piperidin-4-yl)-2,3-dioxopiperazine-1-carboxamido)acetamido)-7-fluoro-2-hydroxy-3,4-dihydro-2H-benzo[e][1,2]oxaborinine-8-carboxylic acid]	< 1	< 1	< 1	< 1	2 to 4 (≈ 2.44 to 4.88 µM)	2 to 4 (≈ 2.44 to 4.88 µM)	2 to 4 (≈ 2.44 to 4.88 µM)	< 1	< 10	< 1	2 to 4 (≈ 2.44 to 4.88 µM)
O=C(O)c1c(F)ccc2c1OB(O)[C@@H](NC(=O)C(NC(=O)N1CCN(C3CCN(C(=O)Nc4ccc(F)c(O)c4)CC3)C(=O)C1=O)c1cc(F)c(O)c(O)c1Cl)C2 (stereo partly drawn) [Example 480, (3R)-3-(2-(2-chloro-5-fluoro-3,4-dihydroxyphenyl)-2-(4-(1-((4-fluoro-3-hydroxyphenyl)carbamoyl)piperidin-4-yl)-2,3-dioxopiperazine-1-carboxamido)acetamido)-7-fluoro-2-hydroxy-3,4-dihydro-2H-benzo[e][1,2]oxaborinine-8-carboxylic acid]	< 1	< 1	< 1	< 1	2 to 4 (≈ 2.44 to 4.88 µM)	8 to 16 (≈ 9.77 to 19.5 µM)	2 to 4 (≈ 2.44 to 4.88 µM)	< 1	< 10	2 to 4 (≈ 2.44 to 4.88 µM)	2 to 4 (≈ 2.44 to 4.88 µM)
O=C(O)c1c(F)ccc2c1OB(O)[C@@H](NC(=O)C(NC(=O)N1CCN(C3CCN(C(=O)Nc4cc(O)cc(F)c4)CC3)C(=O)C1=O)c1cc(F)c(O)c(O)c1Cl)C2 (stereo partly drawn) [Example 481, (3R)-3-(2-(2-chloro-5-fluoro-3,4-dihydroxyphenyl)-2-(4-(1-((3-fluoro-5-hydroxyphenyl)carbamoyl)piperidin-4-yl)-2,3-dioxopiperazine-1-carboxamido)acetamido)-7-fluoro-2-hydroxy-3,4-dihydro-2H-benzo[e][1,2]oxaborinine-8-carboxylic acid]	< 1	< 1	< 1	< 1	2 to 4 (≈ 2.44 to 4.88 µM)	32 to 64 (≈ 39.1 to 78.2 µM)	2 to 4 (≈ 2.44 to 4.88 µM)	< 1	< 10	< 1	2 to 4 (≈ 2.44 to 4.88 µM)
O=C(O)c1c(F)ccc2c1OB(O)[C@@H](NC(=O)[C@H](NC(=O)N1CCN(C3CCN(C(=O)Nc4cccc(O)c4Cl)CC3)C(=O)C1=O)c1cc(F)c(O)c(O)c1Cl)C2 [Example 482, (R)-3-((R)-2-(4-(1-((2-chloro-3-hydroxyphenyl)carbamoyl)piperidin-4-yl)-2,3-dioxopiperazine-1-carboxamido)-2-(2-chloro-5-fluoro-3,4-dihydroxyphenyl)acetamido)-7-fluoro-2-hydroxy-3,4-dihydro-2H-benzo[e][1,2]oxaborinine-8-carboxylic acid]	< 1	< 1	< 1	< 1	2 to 4 (≈ 2.39 to 4.79 µM)	2 to 4 (≈ 2.39 to 4.79 µM)	2 to 4 (≈ 2.39 to 4.79 µM)	< 1	< 10	2 to 4 (≈ 2.39 to 4.79 µM)	2 to 4 (≈ 2.39 to 4.79 µM)
O=C(O)c1c(F)ccc2c1OB(O)[C@@H](NC(=O)C(NC(=O)N1CCN(C3CCN(C(=O)Nc4cc(O)ccc4Cl)CC3)C(=O)C1=O)c1cc(F)c(O)c(O)c1Cl)C2 (stereo partly drawn) [Example 483, (3R)-3-(2-(2-chloro-5-fluoro-3,4-dihydroxyphenyl)-2-(4-(1-((2-chloro-5-hydroxyphenyl)carbamoyl)piperidin-4-yl)-2,3-dioxopiperazine-1-carboxamido)acetamido)-7-fluoro-2-hydroxy-3,4-dihydro-2H-benzo[e][1,2]oxaborinine-8-carboxylic acid]	< 1	2 to 4 (≈ 2.39 to 4.79 µM)	< 1	< 1	2 to 4 (≈ 2.39 to 4.79 µM)	> 128	8 to 16 (≈ 9.58 to 19.2 µM)	< 1	< 10	2 to 4 (≈ 2.39 to 4.79 µM)	2 to 4 (≈ 2.39 to 4.79 µM)
O=C(O)c1c(F)ccc2c1OB(O)[C@@H](NC(=O)C(NC(=O)N1CCN(C3CCN(C(=O)Nc4cc(O)cc(Cl)c4)CC3)C(=O)C1=O)c1cc(F)c(O)c(O)c1Cl)C2 (stereo partly drawn) [Example 484, (3R)-3-(2-(2-chloro-5-fluoro-3,4-dihydroxyphenyl)-2-(4-(1-((3-chloro-5-hydroxyphenyl)carbamoyl)piperidin-4-yl)-2,3-dioxopiperazine-1-carboxamido)acetamido)-7-fluoro-2-hydroxy-3,4-dihydro-2H-benzo[e][1,2]oxaborinine-8-carboxylic acid]	< 1	2 to 4 (≈ 2.39 to 4.79 µM)	< 1	< 1	2 to 4 (≈ 2.39 to 4.79 µM)	> 128	2 to 4 (≈ 2.39 to 4.79 µM)	< 1	< 10	2 to 4 (≈ 2.39 to 4.79 µM)	2 to 4 (≈ 2.39 to 4.79 µM)
O=C(O)c1c(F)ccc2c1OB(O)[C@@H](NC(=O)C(NC(=O)N1CCN(C3CCN(S(=O)(=O)Cc4cccc(O)c4)CC3)C(=O)C1=O)c1cc(F)c(O)c(O)c1Cl)C2 (stereo partly drawn) [Example 485, (3R)-3-(2-(2-chloro-5-fluoro-3,4-dihydroxyphenyl)-2-(4-(1-((3-hydroxybenzyl)sulfonyl)piperidin-4-yl)-2,3-dioxopiperazine-1-carboxamido)acetamido)-7-fluoro-2-hydroxy-3,4-dihydro-2H-benzo[e][1,2]oxaborinine-8-carboxylic acid]	< 1	< 1	< 1	< 1	2 to 4 (≈ 2.39 to 4.78 µM)	2 to 4 (≈ 2.39 to 4.78 µM)	< 1	< 1	< 10	< 1	< 1
